Patent US6339102B1, “Method and composition for treating and preventing retinal damage” (The United States of America as represented by the …, priority 1999, dated 2002)
Like-named read-outs stand apart in the source and are kept apart here.

Legend:
cultured neurons = experiment: MTT neuroprotection assay in cultured neurons after H2O2 oxidative insult; assay type: cell-based; conditions: for % Neuroprotection: 4 h pre-treatment, 50 μM H2O2 30 min, MTT after 24 h, mean±SEM
Experimental: In a separate series of experiments, cultured neurons were pre-treated with four different concentrations of DHL with or without 10 mM SPBN for four hours. At the conclusion of the preincubation period, an oxidative insult was applied by adding 50 μM of hydrogen peroxide (H2O2) for an additional 30 min. Medium containing the H2O2 and antioxidants was then removed and Minimum Essential Medium (MEM) was added to the wells for 24 hours. Neuroprotection was then assessed by conducting the calorimetric MTT assay. One way ANOVA with significance of differences between means assessed by Tukey-Kramer Multiple Comparisons test.
Data are depicted as means±SEM (n=8). Significance was determined by one way ANOVA, and differences between the means was assessed by the Tukey-Kramer test. (See table 1).

[1] = tested on: dissociated retinal cells; experiment: MTT viability of dissociated retinal cells exposed to NaCN and 2-deoxyglucose (simulated ischemia); assay type: cell-based, rabbit; conditions: NaCN and 2-DG giving approximately 60% toxicity, p<0.004
traumatic brain injury = conditions: administered either 15 minutes prior or 30 minutes post injury; preliminary studies; cited from earlier work
focal ischemia [2] = conditions: rat; temporary model: given 3 hours or even 5 hours after start of recirculation; cited from earlier work
[3] = cited from earlier work
focal ischemia [4] = conditions: initiation of treatment delayed as long as 12 hours; cited from earlier work
ferrous chloride = conditions: mice, intracerebral lethal injection of ferrous chloride; cited from earlier work
[5] = in vivo; cited from earlier work
cortical contusion = conditions: rat; cited from earlier work
[6] = Aldrich catalog description; cited from earlier work
striatal lesions = conditions: 100 mg/kg i.p. 30 min prior and q 8 hours for 48 hours after insult; or 300 mg/kg ip repeated; cited from earlier work
retinal ganglion cells = conditions: 500 ng by intraocular injection; Klocker et al.; cited from earlier work
[7] = tested on: ischemia-perfusion injury; conditions: gerbil; cited from earlier work
lesions of striatum = conditions: rats; cited from earlier work
[8] = tested on: ischemia-perfusion injury; conditions: rat; cited from earlier work
[9] = in vivo; cited from earlier work; remark: listed apart in the source

Which results are given for `O=C(O)CCCC[C@@H](S)CCS` (racemic) [DHL, dihydrolipoic acid]?
% Neuroprotection (cultured neurons; DHL 3 μM): 1.31 ± 5.23%; % Neuroprotection (cultured neurons; DHL 10 μM): −3.68 ± 5.14%; % Neuroprotection (cultured neurons; DHL 30 μM): 7.04 ± 7.38%; % Neuroprotection (cultured neurons; DHL 100 μM): 28.48 ± 5.83%; protection against damage from NaCN and 2-DG (maximum effect) ([1]; DHL 0.3 millimolar co-administered): approximately 60%; Emax ([1]; Oryctolagus cuniculus, DHL 0.1 millimolar co-administered, read-out: protection against damage from NaCN and 2-DG (maximum effect)): ~60%

Which results are given for `CC(C)(C)[N+]([O-])=Cc1ccc(S(=O)(=O)[O-])cc1S(=O)(=O)[O-].[Na+].[Na+]` [NXY-059]?
volume of necrosis after traumatic brain injury (traumatic brain injury): effective in decreasing volume of necrosis; efficacy in temporary and permanent focal ischemia (focal ischemia [2]): effective

For `CC(C)(C)[N+]([O-])=Cc1ccccc1` [PBN, α-Phenyl-N-tert-butylnitrone], which toxicity ([3]; in high concentrations) is on record?
The toxicity was “somewhat toxic”.

What about the toxicity ([3]; very high doses) of the same molecule?
Its toxicity is “toxicity is a problem”.

And the “neuroprotection in rat focal ischemia model” value (focal ischemia [4])?
Its value is “neuroprotective”.

And the “seizures and time to death after ferrous chloride” value (ferrous chloride)?
Its value is “minimized seizures and delayed time to death”.

And the “blood brain barrier crossing” value [5]?
The value was “crosses the blood brain barrier”.

And the “accumulation of lactate following cortical contusion” value (cortical contusion)?
The value was “attenuate”.

Which “effect of SPBN on the neuroprotective efficacy of DHL” value (cultured neurons; 10 mM SPBN, at three of the four DHL concentrations tested) does the source give for `CC(C)(C)[N+]([O-])=Cc1ccccc1S(=O)(=O)O` [SPBN, N-tert-Butyl-α-[2-sulfophenyl]-nitrone] here?
Its value is “significantly increased”.

And the water solubility [6]?
The water solubility was “water-soluble”.

And the “protection against striatal toxin lesions (lesion volume)” value (striatal lesions)?
The value was “protective”.

And the “retinal ganglion cells rescued after axotomy” value (retinal ganglion cells)?
The value was 27%.

Which “neuroprotection against ischemia-perfusion injury” value [7] does the source give for `O=C(O)CCCCC1CCSS1` (stereo not drawn) [αLA, Alpha-lipoic acid] here?
The value was “neuro-protective”.

And the “efficacy against NMDA and malonic acid lesions of striatum” value (lesions of striatum)?
Its value is “effective”.

And the “neuroprotection against ischemia-perfusion injury” value [8]?
The value was “neuro-protective”.

What about the clinical safety [9] of the same molecule?
The clinical safety was “clinically safe”.
